SMILES strings stand for the structures.

The target in this assay is T1, human GPR40 (Homo sapiens, UniProt O14842).
T1 construct: expressed in transfected cells
T1 sequence (O14842 whole entry): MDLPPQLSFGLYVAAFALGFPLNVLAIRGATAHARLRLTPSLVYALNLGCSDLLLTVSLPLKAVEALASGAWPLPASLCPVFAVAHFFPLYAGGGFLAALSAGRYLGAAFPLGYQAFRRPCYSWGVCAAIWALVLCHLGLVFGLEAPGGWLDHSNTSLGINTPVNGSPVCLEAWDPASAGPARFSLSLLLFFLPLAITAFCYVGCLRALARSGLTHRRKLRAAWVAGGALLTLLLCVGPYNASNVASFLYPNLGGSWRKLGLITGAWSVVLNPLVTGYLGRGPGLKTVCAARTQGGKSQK
Put plainly: Inositol Phosphate Turnover (IP1) Assay. Type of assay: cell-based. The note with it: HEK cells stably expressing human GPR40; CisBio IP-One kit; 60 minutes at 37 degrees; read-out: Human IP1 EC50. As to the method:
Human GPR40 stable cell-lines were generated in HEK cells. The expression plasmids were transfected using lipofectamine (Life Technologies) following manufacturer's instructions. Stable cell-lines were generated following drug selection and single cell cloning. The assay was performed in 384-well format. HEK cells stably expressing human GPR40 were plated at 7500 cells per well in growth medium (DMEM/10% fetal calf serum). Cell plates were then incubated 16 hours at 37 degrees in a 5% CO2 incubator. Measurement of Inositol Phosphate Turnover (IP1) was performed using the CisBio IP-One kit (Part number 62IPAPEB). After the 16 hour incubation, the growth media was removed by centrifugation using the BlueWasher (AusWasher GUI Ver. v1.0.1.8) Protocol #21-“Light Dry” and 10 ul of stimulation buffer (prepared as described in the kit) was added to each well. In a separate plate, compounds were diluted in DMSO (200-fold over the final concentration in the assay well) and 50 nl was acoustically transferred to the appropriate well in the assay cell plate. The plates were then incubated for 60 minutes at 37 degrees in a 5% CO2 incubator. 10 ul of detection buffer (also prepared as described in the IP-One kit) was added to each well and the plates were incubated at room temperature for 60 minutes in the dark. The plates were then read in a Perkin Elmer EnVision or equivalent reader able to measure FRET. […] Data was normalized to % activity using a reference compound and EC50s determined using a standard 4-parameter fit.
Turning to `CC(c1cc(C(F)(F)F)ccc1C1CC1)N1CCC2(CCc3ccc([C@H](C4CC4)[C@H](C)C(=O)O)c(F)c3O2)CC1` (single isomer, unassigned) [Example 14, sodium (2S,3R)-3-cyclo-propyl-3-(1′-((S or R)-1-(2-cyclopropyl-5-(trifluoromethyl)phenyl)-ethyl)-8-fluorospiro [chroman-2,4′-piperidin]-7-yl)-2-methylpropanoate], the EC50 was determined as 36.3 nM.

Consider `CC(c1cc(C(F)(F)F)ccc1C1CC1)N1CCC2(CCc3ccc([C@H](C4CC4)[C@H](C)C(=O)O)c(F)c3O2)CC1` (single isomer, unassigned) [Example 11, sodium (2S,3R)-3-cyclopropyl-3-(1′-((R or S)-1-(2-cyclopropyl-5-(trifluoromethyl)-phenyl)ethyl)-8-fluorospiro[chroman-2,4′-piperidin]-7-yl)-2-methylpropanoate], for which the EC50 is 0.434 nM.

Regarding `Cc1nc(C(F)(F)F)c(CN2CCC3(CCc4ccc([C@H](C5CC5)[C@H](C)C(=O)O)cc4O3)CC2)s1` [Example 53, (2S,3R)-3-cyclopropyl-2-methyl-3-(1′-((2-methyl-4-(trifluoromethyl)thiazol-5-yl)methyl)spiro[chroman-2,4′-piperidin]-7-yl)propanoic Acid], the EC50 was 107 nM.

With `C[C@H](C(=O)O)[C@H](c1ccc2c(c1)OC1(CC2)CCN(c2cccc(C(F)(F)F)c2)CC1)C1CC1` [Example 41, (2S,3R)-3-cyclopropyl-2-methyl-3-(1′-(3-(trifluoromethyl)phenyl)spiro[chroman-2,4′-piperidin]-7-yl)propanoic acid], the EC50 came out at 12.9 nM.

In the case of `CC(c1ncccc1C(F)(F)F)N1CCC2(CCc3ccc([C@H](C4CC4)[C@H](C)C(=O)O)cc3O2)CC1` (single isomer, unassigned) [Example 43, (2S,3R)-3-cyclopropyl-2-methyl-3-(1′-((S or R)-1-(3-(trifluoromethyl)-pyridin-2-yl)ethyl)spiro[chroman-2,4′-piperidin]-7-yl)propanoic Acid], the EC50 is 60.2 nM.

Turning to `C[C@H](C(=O)O)[C@H](c1ccc2c(c1)OC1(CC2)CCC(Nc2cc(C(F)(F)F)ccc2C(F)(F)F)CC1)C1CC1` (single isomer, unassigned) [Example 64], the EC50 was 27.9 nM.

Consider `C[C@H](C(=O)O)[C@H](c1ccc2c(c1)OC1(CCCN([C@H](C)c3cc(C(F)(F)F)ccc3C(F)(F)F)C1)CC2)C1CC1` (single isomer, unassigned) [Example 74, (2S,3R)-3-((S or R)-1′-((R)-1-(2,5-bis (trifluoromethyl)phenyl)-ethyl)spiro[chroman-2,3′-piperidin]-7-yl)-3-cyclopropyl-2-methylpropanoic acid], for which the EC50 came to 18.3 nM.

`C[C@H](C(=O)O)[C@H](c1ccc2c(c1)OC1(CC2)CC(N(C)Cc2cc(C(F)(F)F)ccc2C(F)(F)F)C1)C1CC1` (single isomer, unassigned) [Example 98]: the EC50 turned out to be 1.62 nM.

Turning to `CC(c1cc(Cl)ccc1OC(F)(F)F)N1CCC2(CCc3ccc([C@H](C4CC4)[C@H](C)C(=O)O)cc3O2)CC1` (stereo partly drawn) [Example 134, Sodium (2S,3R)-3-(1′-(1-(5-chloro-2-(trifluoromethoxy)phenyl)ethyl)spiro[chromane-2,4′-piperidin]-7-yl)-3-cyclopropyl-2-methylpropanoate], the EC50 was determined as 1.4 nM.

On to `C[C@H](C(=O)O)[C@H](c1ccc2c(c1)OC1(CC2)CCN(c2cccc3c2c(C(F)(F)F)nn3C)CC1)C1CC1` [Example 36, (2S,3R)-3-cyclopropyl-2-methyl-3-(1′-(1-methyl-3-(trifluoromethyl)-1H-indazol-4-yl)spiro[chroman-2,4′-piperidin]-7-yl)propanoic Acid], for which the EC50 was 4.78 nM.

With `CC(c1cc(Cl)ccc1C(F)(F)F)N1CCC2(CCc3ccc([C@H](C4CC4)[C@H](C)C(=O)O)cc3O2)CC1` (mixture of isomers) [Example 5, (2S3R)-3-(1′-((RS)-1-(5-chloro-2-(trifluoromethyl)phenyl)ethyl)spiro[chroman-2,4′-piperidin]-7-yl)-3-cyclopropyl-2-methylpropanoic Acid], the EC50 stood at 2.71 nM.

For the compound `COc1cc(N2CCC3(CCc4ccc([C@H](C5CC5)[C@H](C)C(=O)O)cc4O3)CC2)c(Cl)cn1` [Example 55, (2S,3R)-3-(1′-(5-chloro-2-methoxypyridin-4-yl)spiro[chroman-2,4′-piperidin]-7-yl)-3-cyclopropyl-2-methylpropanoic Acid], the EC50 came out at 7.59 nM.

Regarding `C[C@H](C(=O)O)[C@H](c1ccc2c(c1)OC1(CC2)CC(N(C)[C@H](C)c2cc(C(F)(F)F)ccc2C(F)(F)F)C1)C1CC1` (stereo partly shown) [Example 101], the concentration for a half-maximal effect (EC50) was 17 nM.

Turning to `COc1ccc(C(F)(F)F)c(C(C)N2CCC3(CCc4ccc([C@H](C5CC5)[C@H](C)C(=O)O)cc4O3)CC2)n1` (single isomer, unassigned) [Example 104, sodium (2S,3R)-3-cyclopropyl-3-(1′-((R or S)-1-(6-methoxy-3-(trifluoromethyl)pyridin-2-yl)ethyl)spiro[chroman-2,4′-piperidin]-7-yl)-2-methylpropanoate], the EC50 was determined as 59.8 nM.

Regarding `COc1ncc(C(F)(F)F)cc1C(C)N1CCC2(CCc3ccc([C@H](C4CC4)[C@H](C)C(=O)O)cc3O2)CC1` (single isomer, unassigned) [Example 103, (2S,3R)-3-cyclopropyl-3-(1′-((S or R)-1-(2-methoxy-5-(trifluoro-methyl)pyridin-3-yl)ethyl)spiro[chroman-2,4′-piperidin]-7-yl)-2-methylpropanoic acid], the EC50 is 140 nM.

Take `C[C@H](C(=O)O)[C@H](c1ccc2c(c1)OC1(CC2)CCC(N(C)c2ncccc2C(F)(F)F)CC1)C1CC1` (single isomer, unassigned) [Example 69]: the EC50 was determined as 0.416 nM.

For `C[C@H](C(=O)O)[C@H](c1ccc2c(c1)OC1(CC2)CCN(S(=O)(=O)c2ccc(Cl)cc2Cl)CC1)C1CC1` [Example 45], the EC50 came to 148 nM.

Take `COc1ccc(C(F)(F)F)c(C(C)N2CCC3(CCc4ccc([C@H](C5CC5)[C@H](C)C(=O)O)cc4O3)CC2)n1` (single isomer, unassigned) [Example 105, sodium (2S,3R)-3-cyclo-propyl-3-(1′-((S or R)-1-(6-methoxy-3-(trifluoromethyl)pyridin-2-yl)ethyl)-spiro-[chroman-2,4′-piperidin]-7-yl)-2-methylpropanoate]: the EC50 was 126 nM.

In the case of `C[C@H](C(=O)O)[C@H](c1ccc2c(c1)OC1(CC2)CCN(c2ccccc2C(F)(F)F)CC1)C1CC1` [Example 35, sodium (2S,3R)-3-cyclopropyl-2-methyl-3-(1′-(2-(trifluoromethyl)phenyl)-spiro[chroman-2,4′-piperidin]-7-yl)propanoate], the EC50 came out at 5.79 nM.

For the compound `CC(c1cc(C2CC2)ccc1OC(F)(F)F)N1CCC2(CCc3ccc([C@H](C4CC4)[C@H](C)C(=O)O)cc3O2)CC1` (stereo partly drawn) [Example 111, (2S,3R)-3-cyclopropyl-3-(1′-(1-(5-cyclopropyl-2-(trifluoromethoxy)phenyl)ethyl)spiro[chroman-2,4′-piperidin]-7-yl)-2-methylpropanoic Acid], the EC50 was found to be 20.2 nM.

On to `CCC(c1cc(Cl)ccc1OC(F)(F)F)N1CCC2(CCc3ccc([C@H](C4CC4)[C@H](C)C(=O)O)cc3O2)CC1` (stereo partly drawn) [Example 110, (2S,3R)-3-(1′-(1-(5-chloro-2-(trifluoromethoxy)phenyl)propyl)spiro[chroman-2,4′-piperidin]-7-yl)-3-cyclopropyl-2-methylpropanoic Acid], for which the EC50 amounted to 0.812 nM.

Turning to `C[C@H](C(=O)O)[C@H](c1ccc2c(c1)OC1(CC2)CC(N(C)[C@@H](C)c2cc(C(F)(F)F)ccc2C(F)(F)F)C1)C1CC1` (stereo partly drawn) [Example 100, (2S,3R)-3-(3′-(((S)-1-(2,5-bis(trifluoro-methyl)phenyl)ethyl)(meth-yl)amino)spiro[chro-man-2,1′-cyclobutan]-7-yl)-3-cyclopropyl-2-methylpropanic acid], the EC50 worked out at 4.19 nM.

As for `CC(c1cc(C(F)(F)F)ccc1C1CC1)N1CCC2(CCc3ccc([C@H](C4CC4)[C@H](C)C(=O)O)cc3O2)CC1` (single isomer, unassigned) [Example 13, sodium (2S,3R)-3-cyclo-propyl-3-(1′-((R or S)-1-(2-cyclopropyl-5-(trifluoromethyl)phenyl)ethyl)spiro[chroman-2,4′-piperidin]-7-yl)-2-methylpropanoale], the EC50 came out at 3.6 nM.

`C[C@H](C(=O)O)[C@H](c1ccc2c(c1)OC1(CC2)CCN(c2ccc3c(C(F)(F)F)nn(C)c3c2)CC1)C1CC1` [Example 37, (2S,3R)-3-cyclopropyl-2-methyl-3-(1′-(1-methyl-3-(trifluoromethyl)-1H-indazol-6-yl)spiro[chroman-2,4′-piperidin]-7-yl)-propanoic acid]: the EC50 is 683 nM.

Take `C[C@H](C(=O)O)[C@H](c1ccc2c(c1)OC1(CC2)[C@@H]2CC[C@H]1CN([C@H](C)c1cc(C(F)(F)F)ccc1C(F)(F)F)C2)C1CC1` (single isomer, unassigned) [Example 83]: the EC50 was found to be 798 nM.
